Data from patent US7226949B2, “Compounds of use in the treatment of epilepsy, seizure, and electroconvulsive disorders” (University of Kentucky, priority 2002, dated 2007).

Experiments:
mice = assay: Minimal neurotoxicity in mice, rotorod test; settings: up to four hours after dosing, doses as high as 300 mg/kg
Description: In mice, the test compound is administered at doses of 30, and 100 mg/kg prior to evaluation in the toxicity screens. The mice are tested at 0.5 hours and 4 hours after intraperitoneal administration of the test compound.
Toxicity in mice weighing between 18 and 25.5 g is assessed using the standardized rotorod test [9]. For each compound tested, a minimum of 18 animals are evaluated for neurotoxicity. Control mice can maintain their equilibrium for an extended period of time when they are placed on a 6-rpm rotation rod. Neurologically impaired animals cannot maintain equilibrium for one minute in each of three successive trials.

6 Hz seizures = assay: 6 Hz kindling model; type: in vivo, mice
Description: The 6 Hz kindling model is another experimental seizure model that effectively detects compounds with anti-seizure activity. This screen is used to evaluate the ability of a compound to prevent the acquisition of focal seizures; in particular, the capacity of a compound to prevent the development of seizures induced by a low-frequency (6 Hz), long duration (three seconds) stimulus in electrode […] is evaluated. Several of the most promising compounds were evaluated in this screen to further characterize their anti-seizure activity.
In the 6 Hz kindling test, mice are implanted with corneal electrodes. The test compound is administered (i.p.) to the animal at 0.25, 0.5, 1, 2, or 4 hours prior seizure induction. The seizure is initiated by delivering a current (32 mA at 6 Hz for three seconds) to the animal through the corneal electrodes. The resulting psychomotor seizure is usually characterized by a minimal clonic phase followed by stereotyped, automatistic behaviors. This response is analogous to the aura of human patients with partial seizures.

[1] = test system: focal seizures in hippocampal kindled rats; assay: Hippocampal kindling model; type: in vivo, Sprague-Dawley rats; parameters: key to Racine Seizure Score ± SEM: Racine stage 1 to 5; settings: for Afterdischarge Duration ± SEM / Racine Seizure Score ± SEM: rats, 100 mg/kg, n=7
Excerpt: Hippocampal Kindling Model
The hippocampal kindling model is an experimental seizure model used to simulate focal seizures. This model evaluates the capacity of a compound to affect both the expression and acquisition of focal seizures. In addition, kindled seizures provide a methodology for studying complex brain networks that may contribute to the spread and generalizations of seizures from a focus. The hippocampal kindling model has the advantage of being one of the only kindling models that can evaluate the temporal effects of an agent in a single animal. For this assessment, bipolar electrodes are surgically implanted in the ventral hippocampus of adult male Sprague-Dawley rats (275-300 g) under ketamine-xylazine anesthesia. Following a one-week recovery period, stage five behavioral seizures are induced by stimulating the rat 12 times per day with 50 Hz, 10 s train of 1 ms biphasic 200 μA pulses delivered every 30 min for six hours on alternating days. After five stimulus days, the animal has had 60 stimulations. A drug free control period with supramaximal stimulations is used to verify the stability of a stage five generalized seizure before the anticonvulsant activity of a drug is measured.
This screen is used to measure the capacity of the drug to prevent the expression of focal seizures. […] The animal is exposed to an initial stimulation of 20 μA; the stimulation is increased in 10 μA increments every one-two minutes until an afterdischarge is recorded. After the stability of the stage five seizure is established, the drug candidate is administered to the rats via intraperitoneal injection 15 minutes after the last control stimulation. Starting with the first dose, the anticonvulsant activity of the test agent is measured every thirty minutes for four hours. Following each stimulation, Racine seizure scores and afterdischarge durations are compared to control values to quantify the anti-convulsant activity of the agent. The Racine seizure scores vary from stage 1 to 5. The stages are characterized according to the following criteria: Stage 1—mouth and facial clonus, Stage 2—stage 1 and head nodding, Stage 3—stage 2 and forelimb clonus, Stage 4—stage 3 and rearing, Stage 5—stage 4 and repeated rearing and falling. Since a single animal is used, each rat serves as its own control.
4,4′-Thiodianiline was used in the rat hippocampal kindled rats to screen to measure its anticonvulsant potential. Doses of 12.5, 25, 50 and 100 mg/kg were evaluated at a minimum of seven time points (n=7 for each dose and each time point). […] After oral administration of the test compound stimulation, the Racine seizure scores and afterdischarge durations were measured and are shown below. The Racine seizure scores dropped from between a stage 4 and stage 5 seizure for control measurements to between a stage 1 and stage 2 seizure after treatment with 4,4′-thiodianiline.

MES-induced seizure [2] = assay: Maximal Electroshock Seizure (MES) test in rats, oral administration; type: in vivo; settings: for Percentage of rats in which the test compound prevented MES-induced seizure: 30 mg/kg oral
Excerpt: (§1) The Maximal Electroshock Seizure (MES) or Maximal Seizure Pattern Test
(§2) The MES is an experimental model for generalized tonic-clonic seizures that identifies compounds that prevent seizure spread. The MES model is highly reproducible and has a consistent endpoint. An advantage of this model is that the behavioral and electrographic seizures are consistent with those observed in humans.
(§3) In the MES test, the animal receives an electrical stimulus, 0.2 seconds in duration, via corneal electrodes primed with an electrolyte solution containing an anesthetic agent. The 0.2 second stimulation is generated with 150 mA in rats and 50 mA in mice at 60 Hz. […] In rats, the compound is administered orally, while mice receive the agent via intraperitoneal injection. The test endpoint, electrogenic seizure, is manifested as hindlimb tonic extension.
A full dose-response curve was also generated in rats to determine the ED50 value (n=8 at each time point). […] The ED50 of 4,4′-thiodianiline was evaluated in both rats and mice.

rats = assay: Minimal neurotoxicity in rats, positional sense and gait and stance tests; type: in vivo; settings: 1 hour (time to peak effect) after oral administration
Excerpt: If the rat experiences neurological toxicity, it will not be able to quickly lift its leg quickly back to a normal position.
In the gait and stance test, neurotoxicity is indicated by a circular or zigzag gait after administration of the test compound. In addition, ataxia, abnormal spread of the legs, abnormal posture, tremor hyperactivity, lack of exploratory behavior, somnolence, stupor, or catalepsy can indicate neurotoxicity.

MES-induced seizure [3] = assay: Maximal Electroshock Seizure (MES) test in mice, intraperitoneal administration; type: in vivo
Excerpt: as §1, §2, §3

[4] = 30 mg/kg i.p., 0.5 h after administration
[5] = 100 mg/kg i.p., 0.5 h after administration
[6] = 100 mg/kg i.p., 4.0 h after administration

In the case of `Nc1ccc(Sc2ccc(N)cc2)cc1` [4,4′-thiodianiline], the “acute neurotoxicity as measured by the rotorod test” value (mice) is reported as “No acute neurotoxicity was observed”, the “Percentage of mice in which the test compound prevented seizure in the 6 Hz test” value (“Percentage of mice … in the 6 Hz test” for short) (6 Hz seizures; 30 mg/kg i.p., 0.25 h after administration) is reported as 0% and the “Percentage of mice … in the 6 Hz test” value (6 Hz seizures; [4]) is reported as 25%. The “Percentage of mice … in the 6 Hz test” value (6 Hz seizures; 30 mg/kg i.p., 1.0 h after administration) was 25%, the “Percentage of mice … in the 6 Hz test” value (6 Hz seizures; 30 mg/kg i.p., 2.0 h after administration) was 25% and the “Percentage of mice … in the 6 Hz test” value (6 Hz seizures; 80 mg/kg i.p., 0.25 h after administration) was 100%. For the same molecule, the “Percentage of mice … in the 6 Hz test” value (6 Hz seizures; 80 mg/kg i.p., 0.5 h after administration) was 100%, the “Percentage of mice … in the 6 Hz test” value (6 Hz seizures; 80 mg/kg i.p., 1.0 h after administration) was 100% and the “Percentage of mice … in the 6 Hz test” value (6 Hz seizures; 80 mg/kg i.p., 2.0 h after administration) was 75%. For the same molecule, the “Percentage of mice … in the 6 Hz test” value (6 Hz seizures; 80 mg/kg i.p., 4.0 h after administration) was 0%, the “Percentage of mice … in the 6 Hz test” value (6 Hz seizures; 100 mg/kg i.p., 0.25 h after administration) was 100% and the “Percentage of mice … in the 6 Hz test” value (6 Hz seizures; [5]) was 100%. For the same molecule, the “Percentage of mice … in the 6 Hz test” value (6 Hz seizures; 100 mg/kg i.p., 1.0 h after administration) was 100%, the “Percentage of mice … in the 6 Hz test” value (6 Hz seizures; 100 mg/kg i.p., 2.0 h after administration) was 100% and the “Percentage of mice … in the 6 Hz test” value (6 Hz seizures; [6]) was 0%. The ED50 (6 Hz seizures; Mus musculus, ip, read-out: ED50 (6 Hz seizures)) was 30 to 80 mg/kg, the ED50 ([1]; Rattus norvegicus, hippocampal kindled rats, from doses of 12.5, 25, 50 and 100 mg/kg, read-out: ED50, dose required to prevent the expression of focal seizures) was 51.4 mg/kg and the “Afterdischarge Duration ± SEM” value ([1]; 15 min) was 19.14 ± 9.58 s. The “Racine Seizure Score ± SEM” value ([1]; 15 min) was 1.43 ± 0.81, the “Afterdischarge Duration ± SEM” value ([1]; 45 min) was 25.29 ± 13.71 s and the “Racine Seizure Score ± SEM” value ([1]; 45 min) was 1.29 ± 0.84. The “Afterdischarge Duration ± SEM” value ([1]; 75 min) was 24.86 ± 11.43 s, the “Racine Seizure Score ± SEM” value ([1]; 75 min) was 0.71 ± 0.57 and the “Afterdischarge Duration ± SEM” value ([1]; 105 min) was 33.29 ± 14.17 s. For the same molecule, the “Racine Seizure Score ± SEM” value ([1]; 105 min) was 1.29 ± 0.64, the “Afterdischarge Duration ± SEM” value ([1]; 135 min) was 34.71 ± 14.35 s and the “Racine Seizure Score ± SEM” value ([1]; 135 min) was 1.57 ± 0.81. The “Afterdischarge Duration ± SEM” value ([1]; 165 min) was 57.43 ± 18.17 s, the “Racine Seizure Score ± SEM” value ([1]; 165 min) was 1.57 ± 0.65 and the “Afterdischarge Duration ± SEM” value ([1]; 195 min) was 55.29 ± 18.19 s. The “Racine Seizure Score ± SEM” value ([1]; 195 min) was 1.57 ± 0.69, the “Afterdischarge Duration ± SEM” value ([1]; 225 min) was 71.29 ± 18.99 s and the “Racine Seizure Score ± SEM” value ([1]; 225 min) was 1.86 ± 0.70. For the same molecule, the “Afterdischarge Duration ± SEM” value ([1]; 255 min) was 65.43 ± 17.91 s, the “Racine Seizure Score ± SEM” value ([1]; 255 min) was 1.86 ± 0.63 and the “Percentage of rats in which the test compound prevented MES-induced seizure” value (“Percentage of rats” below) (MES-induced seizure [2]; 0.25 h after administration) was 100%. For the same molecule, the “Percentage of rats” value (MES-induced seizure [2]; 0.5 h after administration) was 100%, the “Percentage of rats” value (MES-induced seizure [2]; 1.0 h after administration) was 100% and the “Percentage of rats” value (MES-induced seizure [2]; 2.0 h after administration) was 100%. For the same molecule, the “Percentage of rats” value (MES-induced seizure [2]; 4.0 h after administration) was 100%, the ED50 (MES-induced seizure [2]; Rattus norvegicus, po, read-out: ED50 required to inhibit MES-induced seizure) was 6.6 ± 5.07 mg/kg and the “Time to Peak Effect” value (MES-induced seizure [2]; rat, oral administration, MES test) was 1 h. For the same molecule, the “ED50 for toxicity relative to ED50 for anti-convulsant activity” value (rats) was ~60 times, the “Percentage of mice in which the test compound prevented MES-induced seizure” value (MES-induced seizure [3]; [4]) was 0% and the “Percentage of mice in which the test compound prevented MES-induced seizure” value (MES-induced seizure [3]; 30 mg/kg i.p., 4.0 h after administration) was 0%. For the same molecule, the “Percentage of mice in which the test compound prevented MES-induced seizure” value (MES-induced seizure [3]; [5]) was 66%, the “Percentage of mice in which the test compound prevented MES-induced seizure” value (MES-induced seizure [3]; [6]) was 100% and the “Percentage of mice in which the test compound prevented MES-induced seizure” value (MES-induced seizure [3]; 300 mg/kg i.p., 0.5 h after administration) was 100%. The “Percentage of mice in which the test compound prevented MES-induced seizure” value (MES-induced seizure [3]; 300 mg/kg i.p., 4.0 h after administration) was 100% and the ED50 (MES-induced seizure [3]; Mus musculus, ip, 0.5 h, read-out: ED50 (MES)) was 53.4 ± 14.9 mg/kg.
